Assay results taken from PubChem BioAssay (NCI).
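Dose response: 5 concentrations. Exposure: 48 h. Format: 96-well plates. Endpoint: linear interpolation; highest concentration if not reached. TGI: total growth inhibition.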

What was measured:
Test in all cases: growth of human tumour cells (NCI), 48 h
BT-549 breast = test system: BT-549 breast
EKVX NSCLC = test system: EKVX NSCLC
LOX IMVI melanoma = test system: LOX IMVI melanoma
K-562 leukemia = test system: K-562 leukemia
PC-3 prostate = test system: PC-3 prostate
MDA-N = test system: MDA-N
NCI-H522 lung = test system: NCI-H522 lung
NCI-H460 lung = test system: NCI-H460 lung
A549 NSCLC = test system: A549 NSCLC
HS 578T breast = test system: HS 578T breast
SK-MEL-5 melanoma = test system: SK-MEL-5 melanoma
SK-OV-3 ovarian = test system: SK-OV-3 ovarian
SN12C renal = test system: SN12C renal
786-0 renal = test system: 786-0 renal
HOP-92 NSCLC = test system: HOP-92 NSCLC
M14 melanoma = test system: M14 melanoma
NCI/ADR-RES ovarian = test system: NCI/ADR-RES ovarian
OVCAR-5 ovarian = test system: OVCAR-5 ovarian
SR leukemia = test system: SR leukemia
HCC-2998 colon = test system: HCC-2998 colon
NCI-H226 lung = test system: NCI-H226 lung
HL-60(TB) leukemia = test system: HL-60(TB) leukemia
OVCAR-4 ovarian = test system: OVCAR-4 ovarian
SW-620 colon = test system: SW-620 colon
RXF 393 renal = test system: RXF 393 renal
SNB-75 CNS = test system: SNB-75 CNS
SK-MEL-2 melanoma = test system: SK-MEL-2 melanoma
CCRF-CEM leukemia = test system: CCRF-CEM leukemia
CAKI-1 renal = test system: CAKI-1 renal
HT29 colon = test system: HT29 colon
UACC-62 melanoma = test system: UACC-62 melanoma
DU-145 prostate = test system: DU-145 prostate
HCT-116 colon = test system: HCT-116 colon
UACC-257 melanoma = test system: UACC-257 melanoma
KM12 colon = test system: KM12 colon
MOLT-4 leukemia = test system: MOLT-4 leukemia
MDA-MB-231 breast = test system: MDA-MB-231 breast
UO-31 renal = test system: UO-31 renal
SF-268 CNS = test system: SF-268 CNS
TK-10 renal = test system: TK-10 renal
COLO 205 colon = test system: COLO 205 colon
SK-MEL-28 melanoma = test system: SK-MEL-28 melanoma
T-47D breast = test system: T-47D breast
HOP-62 NSCLC = test system: HOP-62 NSCLC
OVCAR-8 ovarian = test system: OVCAR-8 ovarian
IGROV1 ovarian = test system: IGROV1 ovarian
OVCAR-3 ovarian = test system: OVCAR-3 ovarian
HCT-15 colon = test system: HCT-15 colon
MDA-MB-435 = test system: MDA-MB-435
SF-295 CNS = test system: SF-295 CNS
U251 CNS = test system: U251 CNS
MCF7 breast = test system: MCF7 breast
NCI-H23 lung = test system: NCI-H23 lung
SF-539 CNS = test system: SF-539 CNS
ACHN renal = test system: ACHN renal
SNB-19 CNS = test system: SNB-19 CNS
MALME-3M melanoma = test system: MALME-3M melanoma
RPMI-8226 leukemia = test system: RPMI-8226 leukemia
A498 renal = test system: A498 renal

## CC[C@]1(Cc2ccc(OC)c(OC)c2)C=[N+]([O-])O[C@H](OC2CCCC2(c2ccccc2)c2ccccc2)[C@@H]1OC(=O)c1ccccc1 (some centres undefined)
BT-549 breast
  TGI: > 100 µM
EKVX NSCLC
  TGI: > 23.8 µM
LOX IMVI melanoma
  TGI: > 27.5 µM
K-562 leukemia
  TGI: > 100 µM
PC-3 prostate
  TGI: > 100 µM
MDA-N
  TGI: > 100 µM
NCI-H522 lung
  TGI: > 100 µM
NCI-H460 lung
  TGI: > 100 µM
A549 NSCLC
  TGI: > 100 µM
HS 578T breast
  TGI: > 100 µM
SK-MEL-5 melanoma
  TGI: 12.7 µM
SK-OV-3 ovarian
  TGI: > 100 µM
SN12C renal
  TGI: > 88.2 µM
786-0 renal
  TGI: > 100 µM
HOP-92 NSCLC
  TGI: > 100 µM
M14 melanoma
  TGI: > 100 µM
NCI/ADR-RES ovarian
  TGI: > 62.7 µM
OVCAR-5 ovarian
  TGI: > 100 µM
SR leukemia
  TGI: > 100 µM
HCC-2998 colon
  TGI: > 27.4 µM
NCI-H226 lung
  TGI: > 100 µM
HL-60(TB) leukemia
  TGI: > 100 µM
OVCAR-4 ovarian
  TGI: > 100 µM
SW-620 colon
  TGI: > 100 µM
RXF 393 renal
  TGI: > 25.9 µM
SNB-75 CNS
  TGI: > 37.9 µM
SK-MEL-2 melanoma
  TGI: 37.5 µM
CCRF-CEM leukemia
  TGI: > 30.1 µM
CAKI-1 renal
  TGI: > 100 µM
HT29 colon
  TGI: > 71.1 µM
UACC-62 melanoma
  TGI: > 38.6 µM
DU-145 prostate
  TGI: > 56.3 µM
HCT-116 colon
  TGI: > 100 µM
UACC-257 melanoma
  TGI: > 66.5 µM
KM12 colon
  TGI: 22.9 µM
MOLT-4 leukemia
  TGI: > 21.9 µM
MDA-MB-231 breast
  TGI: > 100 µM
UO-31 renal
  TGI: > 100 µM
SF-268 CNS
  TGI: > 100 µM
TK-10 renal
  TGI: > 33.4 µM
COLO 205 colon
  TGI: > 100 µM
SK-MEL-28 melanoma
  TGI: > 100 µM
T-47D breast
  TGI: > 27.2 µM
HOP-62 NSCLC
  TGI: 62.3 µM
OVCAR-8 ovarian
  TGI: > 100 µM
IGROV1 ovarian
  TGI: > 100 µM
OVCAR-3 ovarian
  TGI: 13.7 µM
HCT-15 colon
  TGI: > 100 µM
MDA-MB-435
  TGI: > 46.3 µM
SF-295 CNS
  TGI: > 65.4 µM
U251 CNS
  TGI: > 100 µM
MCF7 breast
  TGI: > 24.9 µM
NCI-H23 lung
  TGI: > 45.9 µM
SF-539 CNS
  TGI: > 100 µM
ACHN renal
  TGI: > 34.8 µM
SNB-19 CNS
  TGI: > 100 µM

## O=C1c2cc(Cl)ccc2-n2cnnc2C2CSCN12 (centres undefined)
BT-549 breast
  TGI: > 100 µM
MALME-3M melanoma
  TGI: > 100 µM
EKVX NSCLC
  TGI: > 100 µM
LOX IMVI melanoma
  TGI: > 100 µM
K-562 leukemia
  TGI: > 100 µM
PC-3 prostate
  TGI: > 100 µM
MDA-N
  TGI: > 100 µM
NCI-H522 lung
  TGI: > 100 µM
NCI-H460 lung
  TGI: > 100 µM
A549 NSCLC
  TGI: > 100 µM
HS 578T breast
  TGI: > 100 µM
SK-MEL-5 melanoma
  TGI: > 100 µM
SK-OV-3 ovarian
  TGI: > 100 µM
SN12C renal
  TGI: > 100 µM
786-0 renal
  TGI: > 100 µM
RPMI-8226 leukemia
  TGI: > 100 µM
M14 melanoma
  TGI: > 100 µM
NCI/ADR-RES ovarian
  TGI: > 100 µM
OVCAR-5 ovarian
  TGI: > 100 µM
SR leukemia
  TGI: > 100 µM
HCC-2998 colon
  TGI: > 100 µM
NCI-H226 lung
  TGI: > 100 µM
OVCAR-4 ovarian
  TGI: > 100 µM
SW-620 colon
  TGI: > 100 µM
RXF 393 renal
  TGI: > 100 µM
SNB-75 CNS
  TGI: > 100 µM
SK-MEL-2 melanoma
  TGI: > 100 µM
CCRF-CEM leukemia
  TGI: > 100 µM
CAKI-1 renal
  TGI: 46 µM
HT29 colon
  TGI: > 100 µM
UACC-62 melanoma
  TGI: > 100 µM
DU-145 prostate
  TGI: > 100 µM
HCT-116 colon
  TGI: > 100 µM
UACC-257 melanoma
  TGI: > 100 µM
KM12 colon
  TGI: > 100 µM
MOLT-4 leukemia
  TGI: > 100 µM
MDA-MB-231 breast
  TGI: > 100 µM
UO-31 renal
  TGI: > 100 µM
SF-268 CNS
  TGI: > 100 µM
TK-10 renal
  TGI: > 100 µM
COLO 205 colon
  TGI: > 100 µM
SK-MEL-28 melanoma
  TGI: > 100 µM
T-47D breast
  TGI: > 100 µM
HOP-62 NSCLC
  TGI: > 100 µM
OVCAR-8 ovarian
  TGI: > 100 µM
IGROV1 ovarian
  TGI: > 100 µM
OVCAR-3 ovarian
  TGI: > 100 µM
A498 renal
  TGI: > 100 µM
HCT-15 colon
  TGI: > 100 µM
MDA-MB-435
  TGI: > 100 µM
SF-295 CNS
  TGI: > 100 µM
U251 CNS
  TGI: > 100 µM
MCF7 breast
  TGI: > 100 µM
ACHN renal
  TGI: > 100 µM
SNB-19 CNS
  TGI: > 100 µM

## [N-]=[N+]=Nc1ccccc1C(=O)N1C(=O)c2ccccc2C(=O)N(C(=O)c2ccccc2N=[N+]=[N-])c2ccccc21
BT-549 breast
  TGI: > 100 µM
MALME-3M melanoma
  TGI: > 100 µM
EKVX NSCLC
  TGI: > 100 µM
LOX IMVI melanoma
  TGI: > 100 µM
K-562 leukemia
  TGI: > 100 µM
PC-3 prostate
  TGI: > 100 µM
MDA-N
  TGI: > 100 µM
NCI-H522 lung
  TGI: > 100 µM
NCI-H460 lung
  TGI: > 100 µM
A549 NSCLC
  TGI: > 100 µM
HS 578T breast
  TGI: > 100 µM
SK-MEL-5 melanoma
  TGI: > 100 µM
SK-OV-3 ovarian
  TGI: > 100 µM
SN12C renal
  TGI: > 100 µM
786-0 renal
  TGI: > 100 µM
RPMI-8226 leukemia
  TGI: > 100 µM
HOP-92 NSCLC
  TGI: 83.5 µM
M14 melanoma
  TGI: > 100 µM
NCI/ADR-RES ovarian
  TGI: > 100 µM
OVCAR-5 ovarian
  TGI: > 100 µM
SR leukemia
  TGI: > 100 µM
HCC-2998 colon
  TGI: > 100 µM
NCI-H226 lung
  TGI: > 100 µM
OVCAR-4 ovarian
  TGI: > 100 µM
SW-620 colon
  TGI: > 100 µM
RXF 393 renal
  TGI: 76.6 µM
SNB-75 CNS
  TGI: 64 µM
SK-MEL-2 melanoma
  TGI: > 100 µM
CCRF-CEM leukemia
  TGI: 84.6 µM
CAKI-1 renal
  TGI: > 100 µM
HT29 colon
  TGI: > 100 µM
UACC-62 melanoma
  TGI: > 100 µM
DU-145 prostate
  TGI: > 100 µM
HCT-116 colon
  TGI: > 100 µM
UACC-257 melanoma
  TGI: > 100 µM
KM12 colon
  TGI: > 100 µM
MOLT-4 leukemia
  TGI: 50.7 µM
MDA-MB-231 breast
  TGI: > 100 µM
UO-31 renal
  TGI: > 100 µM
SF-268 CNS
  TGI: > 100 µM
TK-10 renal
  TGI: > 100 µM
COLO 205 colon
  TGI: > 100 µM
SK-MEL-28 melanoma
  TGI: > 100 µM
T-47D breast
  TGI: > 100 µM
HOP-62 NSCLC
  TGI: 81 µM
OVCAR-8 ovarian
  TGI: > 100 µM
IGROV1 ovarian
  TGI: > 100 µM
OVCAR-3 ovarian
  TGI: > 100 µM
A498 renal
  TGI: > 100 µM
HCT-15 colon
  TGI: > 100 µM
MDA-MB-435
  TGI: > 100 µM
SF-295 CNS
  TGI: > 100 µM
U251 CNS
  TGI: > 100 µM
MCF7 breast
  TGI: > 100 µM
NCI-H23 lung
  TGI: > 100 µM
SF-539 CNS
  TGI: > 100 µM
ACHN renal
  TGI: > 100 µM
SNB-19 CNS
  TGI: > 100 µM
